We go through eight compounds from patent US20220289668A1 (PHARMALEADS, priority 2019, published 2022).

As usually defined, the Ki is the equilibrium dissociation constant of an inhibitor or competing ligand from its target.

Test [1] deals with T1, Neprilysin (NEP), purified from rabbit kidney (Oryctolagus cuniculus, UniProt P08049).
T1 construct: Neprilysin, purified from rabbit kidney; from tissue; host or cells: rabbit kidney
T1 sequence (P08049 1-750): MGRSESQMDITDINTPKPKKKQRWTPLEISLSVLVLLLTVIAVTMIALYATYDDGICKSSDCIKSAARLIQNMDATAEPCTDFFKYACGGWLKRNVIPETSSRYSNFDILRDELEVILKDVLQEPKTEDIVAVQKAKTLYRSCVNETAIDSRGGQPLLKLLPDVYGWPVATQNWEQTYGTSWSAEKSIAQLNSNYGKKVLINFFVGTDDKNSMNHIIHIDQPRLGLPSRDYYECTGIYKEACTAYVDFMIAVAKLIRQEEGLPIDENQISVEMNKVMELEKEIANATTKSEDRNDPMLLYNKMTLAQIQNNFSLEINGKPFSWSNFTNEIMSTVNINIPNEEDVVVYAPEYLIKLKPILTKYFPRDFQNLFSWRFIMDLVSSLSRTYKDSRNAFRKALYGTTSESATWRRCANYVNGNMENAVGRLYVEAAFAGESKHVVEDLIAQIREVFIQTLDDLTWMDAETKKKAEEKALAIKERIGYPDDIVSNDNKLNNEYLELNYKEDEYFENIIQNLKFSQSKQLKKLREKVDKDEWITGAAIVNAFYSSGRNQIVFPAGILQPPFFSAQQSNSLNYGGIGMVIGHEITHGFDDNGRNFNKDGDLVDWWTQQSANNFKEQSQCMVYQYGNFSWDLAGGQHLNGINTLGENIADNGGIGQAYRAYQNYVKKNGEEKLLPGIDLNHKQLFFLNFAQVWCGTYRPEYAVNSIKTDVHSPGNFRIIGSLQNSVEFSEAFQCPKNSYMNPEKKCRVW
As to the kind of experiment: Neprilysin (NEP) assay, fluorigenic substrate Dansyl-Gly-(NO2)Phe-β-Ala. Format: biochemical. As to conditions: rabbit kidney NEP 200 ng/mL, substrate 20 μM, 50 mM Tris pH 7.4, 37° C.; read-out: NEP (nM), inhibitory power Ki. As to the method: (§1) The claimed inhibitors were tested on different Zn^2+ peptidases representative of this family of enzymes, capable of inhibiting them, such as type 1 neprilysin (E.C.3.4.24.11, NEP-1), neutral aminopeptidase (E.C.3.4.11.2, APN) and LTA4H.
(§2) The assays are carried out on […] in the presence of fluorigenic substrates specific for each enzyme.
(§3) Generally speaking, the inhibitors are pre-incubated, in increasing concentrations, with the enzyme for 10 min, at 37° C. The substrate is then added and the mixture is incubated for 30 to 60 min at 37° C. The reaction is stopped at 4° C. and the reading of the fluorescence emitted is done by reading the Berthold Twinkle LS970B plate. An inhibition curve is then plotted as a function of the concentration of inhibitor using GraphPad software, then the Ki is determined from the Cheng Prusoff formula: Ki=IC50/(1+(S/Km)).
Neprilysin, purified from rabbit kidney (Aubry M et al. (1987), Biochem Cell Biol 65, 398-404), is used at final 200 ng/mL in 50 mM Tris buffer pH 7.4. The substrate, Dansyl-Gly-(NO2)Phe-β-Ala (Goudreau N et al. (1994), Anal Biochem, 219, 87-95) (Km=37 μM), is dissolved in ethanol and is used at final 20 μM. Increasing concentrations (from 10^−10 to 10^−3 M) of inhibitors are pre-incubated for 15 min at 37° C. with NEP in 50 mM Tris buffer, pH 7.4. The substrate is next added and the incubation is continued for 60 min. The reaction is stopped by placing the plate in ice for 10 min. The reading of the fluorescence emitted is carried out in a fluorimeter at λex=355 nm, λem=535 nm.

For test [2], the target named is T2, aminopeptidase N (APN), recombinant human enzyme (Homo sapiens, UniProt P15144).
T2 construct: purchased R&D System
T2 sequence (P15144 whole entry): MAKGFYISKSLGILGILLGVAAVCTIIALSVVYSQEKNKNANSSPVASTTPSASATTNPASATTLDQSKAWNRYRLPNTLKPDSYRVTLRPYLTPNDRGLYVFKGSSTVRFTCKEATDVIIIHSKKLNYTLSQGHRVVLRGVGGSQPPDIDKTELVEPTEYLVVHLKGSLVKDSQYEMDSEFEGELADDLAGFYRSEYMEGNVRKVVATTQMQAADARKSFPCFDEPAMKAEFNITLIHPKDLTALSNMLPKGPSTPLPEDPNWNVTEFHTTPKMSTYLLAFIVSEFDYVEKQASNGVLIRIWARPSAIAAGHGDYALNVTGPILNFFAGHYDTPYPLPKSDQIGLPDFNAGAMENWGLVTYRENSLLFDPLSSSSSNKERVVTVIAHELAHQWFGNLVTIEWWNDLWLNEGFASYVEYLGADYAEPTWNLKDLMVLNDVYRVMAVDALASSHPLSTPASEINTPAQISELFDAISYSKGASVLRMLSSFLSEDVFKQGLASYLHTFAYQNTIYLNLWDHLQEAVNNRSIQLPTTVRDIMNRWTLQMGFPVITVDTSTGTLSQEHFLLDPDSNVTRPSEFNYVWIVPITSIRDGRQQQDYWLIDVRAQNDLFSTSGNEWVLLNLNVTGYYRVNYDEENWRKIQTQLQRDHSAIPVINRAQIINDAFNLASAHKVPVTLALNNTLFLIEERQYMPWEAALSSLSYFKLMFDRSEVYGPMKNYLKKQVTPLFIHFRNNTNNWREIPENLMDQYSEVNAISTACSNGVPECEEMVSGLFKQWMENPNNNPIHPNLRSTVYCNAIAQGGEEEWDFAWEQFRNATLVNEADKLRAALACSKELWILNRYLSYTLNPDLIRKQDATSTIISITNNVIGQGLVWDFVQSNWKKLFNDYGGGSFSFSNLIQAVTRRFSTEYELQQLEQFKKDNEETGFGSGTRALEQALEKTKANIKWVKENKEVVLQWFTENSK
As to the kind of experiment: Neutral aminopeptidase (APN) assay, substrate L-Ala-β-NA. Format: biochemical. As to conditions: APN-rh 50 ng/mL, substrate 50 μM, 50 mM Tris pH 7.4, 37° C.; read-out: APN (nM), inhibitory power Ki. The protocol:
as §1, §2, §3
The measurement of the inhibition of aminopeptidase N (APN) is carried out by use of the substrate L-Ala↓β-NA (50 μM, Sigma Aldrich). The inhibitory powers are determined by using recombinant human enzyme (rh) (50 ng/mL; R&D System). Increasing concentrations (from 10^−10 to 10^−3 M) of inhibitors are pre-incubated for 30 min at 37° C. with APN-rh in 50 mM Tris buffer, pH 7.4. The substrate is next added and the incubation is continued for 30 min at 37° C. The reaction is stopped by placing the plate in ice for 10 min. The reading of the emitted fluorescence is measured in a fluorimeter at λex=340 nm, λem=405 nm.

The next test deals with T3, LTA4H (Homo sapiens, UniProt P09960).
T3 sequence (P09960 1-611): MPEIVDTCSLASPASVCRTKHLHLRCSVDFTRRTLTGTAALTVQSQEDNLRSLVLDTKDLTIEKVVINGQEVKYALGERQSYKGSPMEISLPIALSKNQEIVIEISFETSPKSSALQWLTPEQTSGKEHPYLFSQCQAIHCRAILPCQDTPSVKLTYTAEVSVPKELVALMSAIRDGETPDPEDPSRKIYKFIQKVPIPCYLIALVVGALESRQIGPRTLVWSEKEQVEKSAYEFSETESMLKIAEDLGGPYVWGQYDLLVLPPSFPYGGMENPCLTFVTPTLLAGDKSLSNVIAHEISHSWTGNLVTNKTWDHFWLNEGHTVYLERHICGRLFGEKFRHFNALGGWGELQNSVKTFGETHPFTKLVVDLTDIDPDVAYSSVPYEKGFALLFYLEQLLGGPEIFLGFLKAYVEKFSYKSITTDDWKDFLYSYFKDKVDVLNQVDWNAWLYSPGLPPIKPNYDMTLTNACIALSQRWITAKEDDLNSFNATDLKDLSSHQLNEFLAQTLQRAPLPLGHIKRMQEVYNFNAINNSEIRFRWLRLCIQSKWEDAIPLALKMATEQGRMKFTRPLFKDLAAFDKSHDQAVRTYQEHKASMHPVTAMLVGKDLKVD
The experiment in a line: LTA4 hydrolase assay, substrate (L)-Ala-β-naphthylamide. Format: biochemical. The following applies: recombinant enzyme 0.6 μg/mL, substrate 1 mM, 50 mM Tris HCl pH 7.4, 100 mM NaCl, 37° C.; read-out: LTA4H (nM), inhibitory power Ki. The protocol:
as §1, §2, §3
To determine the Ki values of the different inhibitors with regard to LTA4H, 0.6 μg/mL of recombinant enzyme were incubated beforehand for 30 minutes at 37° C. in 50 mM Tris HCl, pH 7.4, 100 mM NaCl, with increasing concentrations of inhibitor (from 10^−10 M to 10^−4 M of final concentration). The fluorescent substrate (L)-Ala-β-naphthylamide (1 mM) is added in a final volume of 100 μL and is incubated at 37° C. for 15 minutes. The fluorescence values are measured on a Berthold Twinkle LB 970 (λex=340 nm, λem=405 nm, energy of the lamp 10000). Samples containing 0% hydrolysis were obtained by adding the substrate to the buffer and samples having a relative activity of 100% were prepared without inhibitor. The percentage cleavage was evaluated and compared with a relative activity of 100%, and the IC50 values were determined as a consequence. The Ki values of the inhibitors (average of at least three double independent assays) were calculated using the equation Ki=IC50/(1+[S]/Km).

For a further test, the system named is male OF1 mice. The experiment in a line: Hot plate test on mice, intravenous administration. In kind it is in vivo. The following applies: for analgesic response: mice. In general terms: Hot-plate and tail-flick tests time the reaction to a heat stimulus.

For the compound `C[C@H](NC(=O)[C@H](Cc1ccc(-c2ccccc2)cc1)CN(O)C=O)C(=O)O`, the figures for the inhibitory constant (Ki) (in test [1]; in test [2]; at LTA4H) were 0.08 ± 0.01 nM, 86 ± 8 nM and 6.1 ± 0.7 nM, respectively.
The corresponding values for `C[C@H](NC(=O)[C@@H](Cc1ccc(-c2ccccc2)cc1)CN(O)C=O)C(=O)O` are 44.1 ± 2.2 nM, 817 ± 80 nM and more than 10000 nM.
As for `C[C@H](NC(=O)[C@H](Cc1ccccc1)CN(O)C=O)C(=O)O` [Ia-1, (S)-2-((R)-2-benzyl-3-(N-hydroxyformamido)propanamido) propanoic Acid], the Ki is 3.3 ± 0.7 nM in test [1], 143 ± 9 nM in test [2] and 7.5 ± 0.4 nM at LTA4H.
Consider `C[C@H](NC(=O)[C@@H](Cc1ccccc1)CN(O)C=O)C(=O)O` [Ia-2, (S)-2-((S)-2-benzyl-3-(N-hydroxyformamido)propanamido) propanoic Acid], for which the inhibition constant (Ki) was 17.7 ± 0.9 nM in test [1] and more than 10000 nM in test [2].
In the case of `O=CN(O)C[C@@H](Cc1ccccc1)C(=O)N[C@@H](Cc1ccccc1)C(=O)O` [Ib-1, (S)-2-((R)-2-benzyl-3-(N-hydroxyformamido)propanamido)-3-phenylpropanoic Acid], the inhibition constant Ki worked out at 0.5 ± 0.1 nM in test [1], 24 ± 0.4 nM in test [2] and 26 ± 2 nM at LTA4H. For the same compound, the analgesic response in the test with male OF1 mice (Ib-1 10 mg/kg in association with THC 0.375 mg/kg, intravenous coadministration) is on record as 65%; with male OF1 mice (compound Ib-1 alone, 10 mg/kg intravenous, vehicle EtOH/Tween 80/Water (1/1/8)), 10%. Moreover, the “analgesic effect of the association (in words)” value in the test on male OF1 mice (intravenous association of THC and Ib-1 at inactive doses, 10 min after injection, male OF1 mice) is “considerable synergic analgesic effect”.
For the compound `O=CN(O)C[C@H](Cc1ccccc1)C(=O)N[C@@H](Cc1ccccc1)C(=O)O` [Ib-2, (S)-2-((S)-2-benzyl-3-(N-hydroxyformamido)propanamido)-3-phenylpropanoic Acid], the Ki is 23.1 ± 1.1 nM in test [1] and more than 10000 nM in test [2].
With `O=CN(O)C[C@@H](Cc1ccccc1)C(=O)N[C@H](CC(=O)O)Cc1ccccc1` [Ic-1, (S)-3-((R)-2-benzyl-3-(N-hydroxyformamido)propanamido)-4-phenyl butanoic Acid], the Ki is 6.3 ± 0.3 nM in test [1], 12 ± 1.7 nM in test [2] and 443 ± 75 nM at LTA4H.
On to `CCCCCc1cc(O)c2c(c1)OC(C)(C)[C@@H]1CCC(C)=C[C@@H]21` [THC, reference compound], for which the analgesic response in the test with male OF1 mice (THC alone, 0.375 mg/kg intravenous) was 12%.
